Test results as given in ChEMBL document CHEMBL1137327, “Optimization of chromone-2-carboxamide melanin concentrating hormone receptor 1 antagonists: assessment of potency, efficacy, and cardiovascular safety” (J Med Chem, 2006).

Experiments:
[1] = target: T1, Melanin-concentrating hormone receptor 1 (Homo sapiens, UniProt Q99705); assay: Displacement of [125I]MCH from MCHr1 expressed in IMR32 cells; format: cell-based, IMR-32
[2] = target: T1, Melanin-concentrating hormone receptor 1; assay: Antagonist activity at MCHr1 assessed as inhibition of MCH-mediated calcium ion release in intact IMR32 cells by FLIPR assay; format: functional, cell-based, IMR-32
Rattus norvegicus [3] = assay: Drug level in anesthetized Sprague-Dawley rat plasma; format: ADME, organism-based; details: in vivo
Rattus norvegicus [4] = assay: Drug level in anesthetized Sprague-Dawley rat brain; format: ADME, organism-based; details: in vivo
[5] = Cmax in C57BL/6J DIO mouse plasma at 10 mg/kg, po; format: ADME, organism-based; set-up: dose 10 mg/kg, route oral
[6] = Half life in C57BL/6J DIO mouse plasma at 10 mg/kg, po; format: ADME, organism-based; set-up: dose 10 mg/kg, route oral
[7] = AUC in C57BL/6J DIO mouse plasma at 10 mg/kg, po; format: ADME, organism-based; set-up: dose 10 mg/kg, route oral
[8] = Cmax in C57BL/6J DIO mouse brain at 10 mg/kg, po; format: ADME, organism-based; set-up: dose 10 mg/kg, route oral
[9] = Half life in C57BL/6J DIO mouse brain at 10 mg/kg, po; format: ADME, organism-based; set-up: dose 10 mg/kg, route oral
Mus musculus [10] = assay: AUC in C57BL/6J DIO mouse brain at 10 mg/kg, po; format: ADME, organism-based; set-up: dose 10 mg/kg, route oral; details: in vivo
[11] = Ratio of AUC in brain to plasma of C57BL/6J DIO mouse at 10 mg/kg, po; format: ADME, organism-based; set-up: dose 10 mg/kg, route oral; details: brain and plasma, read-out: Ratio AUC
Mus musculus [12] = assay: Decrease in body weight of C57BL/6J DIO mouse at 3 mg/kg, po after 22 days relative to control; format: functional; set-up: scale not given: the % may be the effect or the level left
Mus musculus [13] = assay: Decrease in body weight of C57BL/6J DIO mouse at 10 mg/kg, po after 22 days relative to control; format: functional; set-up: scale not given: the % may be the effect or the level left
[14] = Drug level in C57BL/6J DIO mouse plasma at 3 mg/kg, po after 22 days; format: ADME, organism-based; set-up: dose 3 mg/kg, route oral
[15] = Drug level in C57BL/6J DIO mouse plasma at 10 mg/kg, po after 22 days; format: ADME, organism-based; set-up: dose 10 mg/kg, route oral
[16] = Drug level in C57BL/6J DIO mouse brain at 3 mg/kg, po after 22 days; format: ADME, organism-based; set-up: dose 3 mg/kg, route oral; details: read-out: Drug uptake
[17] = Drug level in C57BL/6J DIO mouse brain at 10 mg/kg, po after 22 days; format: ADME, organism-based; set-up: dose 10 mg/kg, route oral; details: read-out: Drug uptake
[18] = Drug level in anasthetized Beagle dog plasma at 3 mg/kg, iv after 30 mins; format: ADME, organism-based, Canis lupus familiaris; set-up: dose 3 mg/kg, route intravenous
[19] = Drug level in anasthetized Beagle dog plasma at 10 mg/kg, iv after 30 mins; format: ADME, organism-based, Canis lupus familiaris; set-up: dose 10 mg/kg, route intravenous
[20] = Drug level in anasthetized Beagle dog plasma at 30 mg/kg, iv after 30 mins; format: ADME, organism-based, Canis lupus familiaris; set-up: dose 30 mg/kg, route intravenous
Canis familiaris [21] = species: Canis familiaris; assay: Decrease in heart rate in anasthetized Beagle dog at 10.94 ug/ml relative to control; format: functional, Canis lupus familiaris; set-up: scale not given: the % may be the effect or the level left
Canis familiaris [22] = species: Canis familiaris; assay: Decrease in heart rate in anasthetized Beagle dog at 36.13 ug/ml relative to control; format: functional, Canis lupus familiaris; set-up: scale not given: the % may be the effect or the level left
Rattus norvegicus [23] = assay: Decrease in heart rate in anesthetized Sprague-Dawley rat at 100 mg/kg; format: functional; set-up: scale not given: the % may be the effect or the level left
Rattus norvegicus [24] = assay: Decrease in mean arterial pressure in anesthetized Sprague-Dawley rat at 60 mg/kg; format: functional, Artery; set-up: scale not given: the % may be the effect or the level left

T1 sequence (Q99705 whole entry): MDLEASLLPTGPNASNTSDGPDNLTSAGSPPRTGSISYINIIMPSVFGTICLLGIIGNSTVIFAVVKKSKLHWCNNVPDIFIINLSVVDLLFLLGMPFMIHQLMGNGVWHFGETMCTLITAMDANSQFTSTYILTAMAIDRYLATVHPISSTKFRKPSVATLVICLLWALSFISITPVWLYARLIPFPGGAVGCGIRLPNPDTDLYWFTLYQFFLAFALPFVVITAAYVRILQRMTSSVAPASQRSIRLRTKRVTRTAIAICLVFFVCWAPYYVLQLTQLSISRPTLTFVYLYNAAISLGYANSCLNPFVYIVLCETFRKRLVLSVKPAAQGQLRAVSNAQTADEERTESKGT

Structure (SMILES)	IC50 [1]	IC50 [2]	other results
O=C(NC1CCN(Cc2ccc3c(c2)OCO3)CC1)c1cc(=O)c2ccc(O)cc2o1	1480 nM	> 10000 nM	–
O=C(NC1CCN(Cc2ccccc2F)CC1)c1cc(=O)c2ccc(F)cc2o1	566 nM	2150 nM	–
O=C(NC1CCN(Cc2ccc3c(c2)OCO3)CC1)c1cc(=O)c2cc(F)c(F)c(F)c2o1	91 nM	418 nM	–
O=C(NC1CCN(Cc2ccc3c(c2)OCO3)CC1)c1cc(=O)c2ccc(F)cc2o1	–	–	Cp (Rattus norvegicus [3]): 62000 ng/mL; Drug uptake (Rattus norvegicus [4]): 126 µg/g; Cmax ([5]; read-out: Cp): 1780 ng/mL; half-life [6]: 2.5 h; AUC [7]: 9290 ng·h/mL; Cmax [8]: 4370 ng/g; half-life [9]: 2.4 h; AUC (Mus musculus [10]): 12658 ng·h/g; Kp [11]: 1.4; Activity (Mus musculus [12]): 0%; Activity (Mus musculus [13]): 7%; concentration at 528 h [14]: 840 ng/mL; concentration at 528 h [15]: 3270 ng/mL; concentration at 528 h [16]: 1110 ng/g; concentration at 528 h [17]: 4670 ng/g; concentration at 0.5 h [18]: 5.9 µM; concentration at 0.5 h [19]: 25.8 µM; concentration at 0.5 h [20]: 85.1 µM; Activity (Canis familiaris [21]): 22%; Activity (Canis familiaris [22]): 11%
COc1ccc(CN2CCC(NC(=O)c3cc(=O)c4ccc(F)cc4o3)CC2)cc1OC	427 nM	–	–
COc1ccc2c(=O)cc(C(=O)N3CCN(Cc4ccc5c(c4)OCO5)CC3)oc2c1	> 2000 nM	–	–
O=C(NC1CCN(Cc2ccc3c(c2)OCO3)CC1)c1cc(=O)c2cc(OC(F)(F)F)ccc2o1	132 nM	> 9000 nM	–
O=C(NC1CCN(Cc2ccc3c(c2)OCO3)CC1)c1cc(=O)c2cc(Cl)ccc2o1	734 nM	2050 nM	–
O=C(NC1CCN(Cc2ccc3c(c2)OCO3)CC1)c1cc(=O)c2c(Cl)c(Cl)ccc2o1	75 nM	4750 nM	–
O=C(NC1CCN(Cc2ccc3c(c2)OCO3)CC1)c1cc(=O)c2cc(F)cc(F)c2o1	99 nM	2720 nM	–
O=C(NC1CCN(Cc2ccc3c(c2)OCO3)CC1)c1cc(=O)c2cc(Cl)c(Cl)cc2o1	–	83 nM	Cp (Rattus norvegicus [3]): 20000 ng/mL; Drug uptake (Rattus norvegicus [4]): 63 µg/g; Activity (Rattus norvegicus [23]): 10%; Cmax ([5]; read-out: Cmax): 33 ng/mL; half-life [6]: 0.9 h; AUC [7]: 39 ng·h/mL; AUC (Mus musculus [10]): 0 ng·h/g
COc1ccc2c(=O)cc(C(=O)NC3CCCN(Cc4ccc5c(c4)OCO5)C3)oc2c1 (centres undefined)	> 2000 nM	–	–
O=C(NC1CCN(Cc2cccc3c2OCO3)CC1)c1cc(=O)c2ccc(F)cc2o1	> 700 nM	–	–

Further lines, with some results ahead:

IC50 [1]	IC50 [2]	Structure (SMILES)	other results
59 nM	529 nM	CCc1ccc2c(=O)cc(C(=O)NC3CCN(Cc4ccc5c(c4)OCO5)CC3)oc2c1	–
31 nM	390 nM	COc1cccc(CN2CCC(NC(=O)c3cc(=O)c4ccc(F)cc4o3)CC2)c1	–
57 nM	601 nM	O=C(NC1CCN(Cc2ccc3c(c2)OC(F)(F)O3)CC1)c1cc(=O)c2ccc(F)cc2o1	–
60 nM	592 nM	O=C(NC1CCN(Cc2ccccc2)CC1)c1cc(=O)c2ccc(F)cc2o1	–
66 nM	192 nM	O=C(NC1CCN(Cc2ccc3c(c2)OCO3)CC1)c1cc(=O)c2ccccc2o1	–
5 nM	79 nM	O=C(NC1CCN(Cc2ccc3c(c2)OCO3)CC1)c1cc(=O)c2ccc(Cl)cc2o1	–
12 nM	966 nM	O=C(NC1CCN(Cc2cccc(F)c2)CC1)c1cc(=O)c2ccc(F)cc2o1	–
22 nM	266 nM	O=C(NC1CCN(Cc2cc3c(cc2Cl)OCO3)CC1)c1cc(=O)c2ccc(F)cc2o1	–
2 nM	13 nM	O=C(NC1CCN(Cc2ccc3c(c2)OCO3)CC1)c1cc(=O)c2cc(F)c(F)cc2o1	Cp (Rattus norvegicus [3]): 34000 ng/mL; Drug uptake (Rattus norvegicus [4]): 25 µg/g; Activity (Rattus norvegicus [24]): >15%
13 nM	101 nM	COc1ccc(CN2CCC(NC(=O)c3cc(=O)c4ccc(F)cc4o3)CC2)cc1	–
